Test results: publication PMC6910946, “Multiple roles of Bet v 1 ligands in allergen stabilization and modulation of endosomal protease activity” (Allergy, 2019)
Where two headings read alike, the source gives them in different places.

Columns and labels:
Bet_v_1 = biological target: T1, Bet_v_1 (Betula pendula, UniProt P15494); experiment: Surface acoustic wave (SAW) interaction studies, determination of Kd; format: binding
T1 construct: made in house
T1 sequence (P15494 1-160): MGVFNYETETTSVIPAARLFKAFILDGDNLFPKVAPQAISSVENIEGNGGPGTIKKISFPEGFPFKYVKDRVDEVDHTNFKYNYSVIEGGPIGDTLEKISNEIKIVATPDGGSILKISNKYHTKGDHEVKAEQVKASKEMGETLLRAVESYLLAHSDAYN
Text: Surface acoustic wave (SAW) technology and NMR spectroscopy were used to observe the interaction of Bet_v_1 with the selected compounds, including determination of the dissociation constant (K d). The influence of ligand binding on the secondary structure elements and the thermal stability of Bet_v_1 was monitored using circular dichroism (CD, JASCO J‐815 spectropolarimeter, Jasco) and Fourier transform infrared (FTIR) spectroscopy (Tensor II FTIR system, Bruker Optics Inc). A detailed description of these methods is available (Appendix [Link], [Link]).
To assess the interactions between Bet_v_1 and Q3OS, DOC, PPE1, LTA, or LPS, we determined the dissociation constants (K d) using SAW binding assays (Table 1, Figure S1), a more quantitative approach than previously described qualitative assays.11, 25 In addition, the LPS‐substructure Kdo2‐Lipid A (Kdo2) was used for binding studies, due to its more homogenous structure but similar immune stimulatory activity when compared to native LPS.
For the determination of the affinity constant Kd, we used surface acoustic wave (SAW) technology. The interaction of the six ligands with Bet v 1 was investigated using a sam® 5BLUE biosensor instrument (Nanotemper, Munich, Germany). Bet v 1 was immobilized in PBS on the surface of a SAW CM-Dextran 3D sensor chip. […] For calculating the affinity constant Kd, different concentrations of the ligands dissolved in a 5 mM sodium phosphate buffer, pH 7.4, were applied to the Bet v 1-coupled chip. Depending on the ligand, the concentration range of the injected ligand varied between 5 µM and 500 µM. For the removal of residual ligand between the sample injections, the chip was washed with regeneration buffer (10 mM citric acid buffer, pH 2.8). The recorded SAW phase changes were analyzed using the software TraceDrawer 1.7 (Ridgeview Instruments, Uppsala, Sweden). The affinity constant Kd was calculated by kinetic evaluation and affinity/EC50 estimation. For kinetic evaluation, an OneToOne curve fit was chosen to match the raw data. Experiments were performed with two coated chips in duplicate, and the coupling efficiency was evaluated using a mouse monoclonal anti-Bet v 1 antibody.

[1] = biological target: T2, Bet_v_1 (endolysosomal proteases of microsomes) (Betula pendula, UniProt P15494); experiment: In vitro simulation of endolysosomal degradation of Bet v 1 with microsomes; format: biochemical; details: for accumulation of N‐terminal cluster peptides during Bet v 1 processing / generation of the immunodominant T‐cell epitope (number of identified peptides): 12 h degradation; for proteolytic stability of Bet v 1 toward endolysosomal proteases: ligand in 10× molar excess, 0-48 h, densitometric analysis of SDS‐PAGE
T2 construct: made in house
T2 sequence (P15494 1-160): T1 sequence (P15494 1-160)
Method: The endolysosomal degradation assay was performed with ligand‐bound (either DOC, PPE1, or Q3OS in 10× molar excess) and Bet_v_1 without ligands (apo‐Bet_v_1) as previously described.21 Recombinant human cathepsin S and human legumain were used in proteolytic degradation assays. Experimental details are described in the Appendix [Link], [Link].
The endolysosomal degradation assay was performed with ligand-bound (either DOC, PPE1, or Q3OS in 10× molar excess) and Bet v 1 without ligands (apo-Bet v 1) as previously described.^7 The protein (5 µg) was incubated with 7 µg of microsomes in 100 mM citrate buffer pH 4.8 and 2 mM dithiothreitol (DTT) for 0, 0.5, 1, 3, 6, 12, 24, and 48 h at 37°C. The different digestion preparations were analyzed by SDS-PAGE and quantitatively interpreted using Image Lab 4.0.1 Software (Bio-Rad). The generated peptides obtained after 12 h of digestion were analyzed using mass spectrometry with a Q-Exactive Orbitrap Mass Spectrometer (Thermo Fisher Scientific, Waltham, MA, USA), nanoelectrospray, and nano-HPLC (Dionex Ultimate 3000, Thermo Fisher Scientific).
For data analysis, the web-based application MSTools was used.^8 For the semi-quantitative analysis of the abundance of the generated peptides at 12 hours of degradation, the obtained peptide sequences were clustered into 7 groups according to their amino acid sequence (cluster 1, GVF-NYE-TET-TSV-IPA-ARL-FKA-F; cluster 2, AIL-DGD-NLF-PKV-APQ-A; cluster 3, AIS-SVE-NIE-GNG-GPG-TIK-KIS-FPE-G; cluster 4, FPF-KYV-KDR-VDE-VDH-TNF-K; cluster 5, YNY-SVI-EGG-PIG-DTL-EKI-SNE-IKI-VAT-PDG-GSI-LK; cluster 6, ISN-KYH-TKG-DHE-VKA-EQV-KAS-KEM-GET-LLR; and cluster 7, RAV-ESY-LLA-HSD-AYN), and the total sum of peak areas of all sequences per cluster was calculated (in percentage).

[2] = tested on: rat basophil (RBL‐2H3) cells transfected with the human high‐affinity IgE receptor (FcεRI); experiment: Mediator release assay (IgE cross-linking, basophil degranulation); format: cell-based; details: sera of six birch pollen allergic subjects
Method: The ability of ligand‐loaded Bet_v_1 to induce IgE‐antigen cross‐linking and basophil degranulation was assessed by mediator‐release assays using rat basophil (RBL‐2H3) cells, transfected with the human high‐affinity IgE receptor (FcεRI), as previously described.2, 24 In vitro uptake of labeled Bet_v_1 was performed using CD11c^+ murine bone marrow–derived dendritic cells (BMDCs). The maturation of human monocyte‐derived dendritic cells (moDCs) was analyzed as previously described.2 T‐cell proliferation assays using CD4^+ T‐cell hybridomas were performed as previously described.17 A detailed description of the in vitro assays is available (Appendix [Link], [Link]).
A mediator-release assay was performed to assess the capacity of ligand-loaded Bet v 1 to induce IgE-antigen-crosslinking and basophil degranulation. In this respect, rat basophil (RBL-2H3) cells, transfected with the human high-affinity IgE receptor (FcεRI) were passively sensitized with sera of six subjects allergic to birch pollen (1:10), and used as previously described.^4 For cell-stimulation, Bet v 1 was used at 10-fold dilutions from 1 µg/ml to 0.01 pg/ml. Toxicity of ligands on RBL-2H3 was determined by cell viability assay using MTT (3-(4,5-Dimethylthiazol-2-yl)-2,5-Diphenyltetrazolium Bromide) from Sigma-Aldrich, Inc. (St. Louis, MO, USA). Results were expressed as percentage of total enzyme release of cells lysed with Triton X-100, and the half maximal release (in ng) was determined. Statistics were calculated with a repeated ANOVA followed by a Dunnett post-hoc test of logarithmically transformed half maximal release values (not significant, ns P > 0.05, *P < 0.05, **P < 0.01, and ***P < 0.001).

[3] = 12 h incubation, mass spectrometry
[4] = Bet v 1 immobilized on chip, ligands in 5 mM sodium phosphate buffer pH 7.4, read-out: Binding affinity K d (SAW)

Compound | Kd (Bet_v_1; Binding affinity K d (SAW)) | Kd (Bet_v_1; Kd (SAW, Fig. S1)) | accumulation of N‐terminal cluster peptides during Bet v 1 processing [1] | generation of the immunodominant T‐cell epitope (number of identified peptides) [1] | Bet v 1 peptide diversity reduced to (versus apo form) [1, 3] | proteolytic stability of Bet v 1 toward endolysosomal proteases [1] | IgE cross‐linking by Bet v 1‐complexes (RBL assay) [2] | Kd (Bet_v_1; [4]) | Kd (Bet_v_1; Fig. S1 sensorgrams, read-out: Kd (SAW, Fig. S1)) | diversity of peptides versus apo form of Bet v 1 [1, 3]
C[C@H](CCC(=O)O)[C@H]1CC[C@H]2[C@@H]3CC[C@@H]4C[C@H](O)CC[C@]4(C)[C@H]3C[C@H](O)[C@]12C [DOC, sodium deoxycholate, reference compound] | 58800 nM | 58800 nM | preferentially accumulated the two N‐terminal cluster peptides | more efficient generation of the immunodominant T‐cell epitope | 69.7% | enhanced proteolytic stability | None of the above described readouts was influenced | – | – | –
O=c1c(O[C@@H]2O[C@H](CO)[C@@H](O)[C@H](O)[C@H]2O[C@@H]2O[C@H](CO)[C@@H](O)[C@H](O)[C@H]2O)c(-c2ccc(O)c(O)c2)oc2cc(O)cc(O)c12 [Q3OS, quercetin 3‐O‐sophoroside] | – | – | – | more efficient generation of the immunodominant T‐cell epitope | – | only a weakly stabilizing effect over the first 12 hours | None of the above described readouts was influenced | 1500 nM | 1470 nM | 2 fold
CCC1C(=O)CC(O)C1/C=C/C(O)CCCCCCCC(=O)O (stereo not drawn) [PPE1, E1 phytoprostanes] | – | – | preferentially accumulated the two N‐terminal cluster peptides | – | 53.9% | enhanced proteolytic stability | None of the above described readouts was influenced | 500 nM | – | –
